{"source": "ChEMBL document CHEMBL5375972", "about": "“Discovery of Novel 2,3-Dihydro-1H-indene-5-sulfonamide NLRP3 Inflammasome Inhibitors Targeting Colon as a Potential Therapy for Colitis” (J Med Chem, 2023)", "key": {"[1]": {"assay": "Subacute toxicity in C57BL/6 mouse assessed as colon histological changes at 10 mg/kg,ip administrated for 14 days", "assay_type": "organism-based", "conditions": "in vivo, 336 h, time 14 day"}, "[2]": {"assay": "Subacute toxicity in C57BL/6 mouse assessed as liver histological changes at 100 mg/kg,ip administrated for 14 days", "assay_type": "organism-based", "conditions": "in vivo, 336 h, time 14 day"}, "[3]": {"assay": "Subacute toxicity in C57BL/6 mouse assessed as change in heart weight at 100 mg/kg,ip administrated for 14 days", "assay_type": "organism-based", "conditions": "in vivo, 336 h, time 14 day"}, "[4]": {"assay": "Acute toxicity in Kunming mouse model assessed as behavioral abnormalities at 2000 mg/kg,IG administration for 7 days", "assay_type": "organism-based", "conditions": "in vivo, po, 168 h, time 7 day"}, "[5]": {"assay": "Subacute toxicity in C57BL/6 mouse assessed as colon histological changes at 100 mg/kg,ip administrated for 14 days", "assay_type": "organism-based", "conditions": "in vivo, 336 h, time 14 day"}, "[6]": {"assay": "Cytotoxicity against human HL7702 cells incubated for 48 hrs by resazurin reagent based assay", "assay_type": "toxicity, cell-based", "conditions": "HL7702 (L02) cells"}, "[7]": {"assay": "Acute toxicity in Kunming mouse model assessed as change in body weight at 2000 mg/kg,IG administration for 7 days", "assay_type": "organism-based", "conditions": "in vivo, po, 168 h, time 7 day"}, "[8]": {"target": "NACHT, LRR and PYD domains-containing protein 3 (Homo sapiens, UniProt Q96P20)", "sequence (Q96P20 whole entry, the tested form may be a part)": "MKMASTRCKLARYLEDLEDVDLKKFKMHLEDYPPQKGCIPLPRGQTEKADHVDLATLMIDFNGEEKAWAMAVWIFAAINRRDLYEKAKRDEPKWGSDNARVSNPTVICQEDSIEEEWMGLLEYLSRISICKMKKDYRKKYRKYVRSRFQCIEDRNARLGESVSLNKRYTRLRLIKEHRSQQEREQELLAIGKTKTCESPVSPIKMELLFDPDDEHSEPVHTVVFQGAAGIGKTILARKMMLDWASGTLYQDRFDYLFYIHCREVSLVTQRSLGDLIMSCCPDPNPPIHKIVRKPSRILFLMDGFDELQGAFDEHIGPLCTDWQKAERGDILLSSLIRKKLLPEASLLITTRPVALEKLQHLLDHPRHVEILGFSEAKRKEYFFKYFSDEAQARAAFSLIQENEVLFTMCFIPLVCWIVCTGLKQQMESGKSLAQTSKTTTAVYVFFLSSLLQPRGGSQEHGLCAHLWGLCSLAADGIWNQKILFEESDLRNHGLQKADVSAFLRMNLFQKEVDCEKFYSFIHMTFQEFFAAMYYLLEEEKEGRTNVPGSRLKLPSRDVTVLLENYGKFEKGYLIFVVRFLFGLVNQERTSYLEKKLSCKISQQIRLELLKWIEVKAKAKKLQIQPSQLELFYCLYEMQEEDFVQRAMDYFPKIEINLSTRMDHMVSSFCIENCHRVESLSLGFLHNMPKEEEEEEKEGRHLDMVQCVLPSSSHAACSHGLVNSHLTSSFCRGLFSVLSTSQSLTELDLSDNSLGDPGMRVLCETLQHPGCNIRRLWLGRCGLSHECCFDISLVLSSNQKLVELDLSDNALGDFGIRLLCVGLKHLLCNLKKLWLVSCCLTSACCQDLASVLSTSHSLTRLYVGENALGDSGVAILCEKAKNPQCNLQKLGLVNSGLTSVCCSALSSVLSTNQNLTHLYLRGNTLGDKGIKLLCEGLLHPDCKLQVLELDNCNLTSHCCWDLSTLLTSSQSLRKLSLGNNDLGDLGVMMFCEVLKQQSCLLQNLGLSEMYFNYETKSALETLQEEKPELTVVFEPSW", "assay": "Binding affinity to human NLRP3 assessed as equilibrium dissociation constant by surface plasmon resonance assay"}}, "data": [{"smiles": "CCCNS(=O)(=O)c1ccc2c(c1)CC(N(Cc1cc(Cl)ccc1OCCOC)C(=O)c1cc3ccccc3o1)C2", "note": "(racemic)", "values": [{"measurement": "Activity", "setting": "[1]", "result": "Non-Toxic"}, {"measurement": "Activity", "setting": "[2]", "result": "Non-Toxic"}, {"measurement": "Activity", "setting": "[3]", "result": "Non-Toxic"}, {"measurement": "Activity", "setting": "[4]", "result": "Non-Toxic"}, {"measurement": "Activity", "setting": "[5]", "result": "Non-Toxic"}, {"measurement": "CC50 at 48 h", "setting": "[6]", "result": "> 1000", "unit": "µM"}, {"measurement": "Activity", "setting": "[7]", "result": "Non-Toxic"}, {"measurement": "Kd", "setting": "[8]", "result": 0.103, "unit": "µM"}]}]}
